Reference: patent US11051515B2, “3-acyl-benzamides and their use as herbicides” (Bayer Aktiengesellschaft, priority 2017, dated 2021)

Tests used:
SETVI [1] = assay: Post-emergence action against SETVI; type: in vivo, Setaria viridis; conditions: post-emergence, dosage 80 g/ha, visual assessment about 3 weeks after treatment vs untreated controls
Outline: (§1)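 Weeds grown in sandy loam in greenhouse, treated at one-leaf stage (2–3 weeks after sowing) with WP or EC formulations sprayed as aqueous suspension/emulsion at 600 to […] water with 0.2% wetting agent. Visual rating after about 3 weeks versus untreated controls, as % herbicidal action (100% = plants dead, 0% = like control).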

AVEFA [2] = assay: Post-emergence action against AVEFA; type: in vivo, Avena fatua; conditions: post-emergence, dosage 80 g/ha, visual assessment about 3 weeks after treatment vs untreated controls
Procedure: (§2) Seeds of monocotyledonous and dicotyledonous weed and crop plants are laid out in sandy loam soil in wood-fiber pots, covered with soil and cultivated in a greenhouse under good growth conditions. 2 to 3 weeks after sowing, the test plants are treated at the one-leaf stage. The compounds of the invention, formulated in the form of wettable powders (WP) or as emulsion concentrates (EC), are then sprayed onto the green parts of the plants in the form of an aqueous suspension or emulsion at a water application rate equating to […], with addition of 0.2% wetting agent. After the test plants have been left to stand in the greenhouse under optimal growth conditions for about 3 weeks, the action of the preparations is assessed visually in comparison to untreated controls (herbicidal action in percent (%): 100% activity=the plants have died, 0% activity=like control plants). […] At the same time, inventive compounds leave Gramineae crops such as barley, wheat, rye, millet/Sorghum, corn or rice virtually undamaged when applied post-emergence, even at high active ingredient dosages. In addition, some substances are also harmless to dicotyledonous crops such as soya, cotton, oilseed rape, sugar beet or potatoes. Some of the compounds according to the invention have high selectivity and are therefore suitable for controlling unwanted vegetation in agricultural crops by the post-emergence method. The data of Tables B18 to B34 below illustrate, in an exemplary manner, the […] herbicidal action of the compounds according to the invention, the herbicidal activity being stated in percent.

PHBPU [3] = assay: Pre-emergence action against PHBPU; type: in vivo, Pharbitis purpurea; conditions: Dosage 320 g/ha, pre-emergence
Outline: (§3)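 Seeds sown in sandy loam in wood-fiber pots and covered with soil. Greenhouse growth; visual damage scored after 3 weeks versus untreated controls (100% = dead, 0% = like control).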

MATIN [4] = assay: Post-emergence action against MATIN; type: in vivo, Matricaria inodora; conditions: post-emergence, dosage 80 g/ha, visual assessment about 3 weeks after treatment vs untreated controls
Outline: as §1

MATIN [5] = assay: Pre-emergence action against MATIN; type: in vivo, Matricaria inodora; conditions: Dosage 320 g/ha, pre-emergence
Outline: as §3

SETVI [6] = assay: Pre-emergence action against SETVI; type: in vivo, Setaria viridis; conditions: pre-emergence, dosage 320 g/ha, scored visually after 3 weeks vs untreated controls
Outline: as §3

VIOTR [7] = assay: Pre-emergence action against VIOTR; type: in vivo, Viola tricolor; conditions: Dosage 320 g/ha, pre-emergence
Outline: as §3

CYPES [8] = assay: Post-emergence action against CYPES; type: in vivo, Cyperus esculentus; conditions: post-emergence, dosage 80 g/ha, visual assessment about 3 weeks after treatment vs untreated controls
Outline: as §1

ABUTH [9] = assay: Post-emergence action against ABUTH; type: in vivo, Abutilon theophrasti; conditions: post-emergence, dosage 80 g/ha, visual assessment about 3 weeks after treatment vs untreated controls
Outline: as §1

AMARE [10] = assay: Post-emergence action against AMARE; type: in vivo, Amaranthus retroflexus; conditions: post-emergence, dosage 80 g/ha, visual assessment about 3 weeks after treatment vs untreated controls
Outline: as §1

CYPES [11] = assay: Pre-emergence action against CYPES; type: in vivo, Cyperus esculentus; conditions: pre-emergence, dosage 320 g/ha, scored visually after 3 weeks vs untreated controls
Outline: as §3

ALOMY [12] = assay: Pre-emergence action against ALOMY; type: in vivo, Alopecurus myosuroides; conditions: dosage 320 g/ha; pre-emergence; scored visually after 3 weeks vs untreated controls; 100% = plants have died, 0% = like control plants
Outline: as §3

VERPE [13] = assay: Post-emergence action against VERPE; type: in vivo, Veronica persica; conditions: dosage 80 g/ha
Outline: as §1

AVEFA [14] = assay: Pre-emergence action against AVEFA; type: in vivo, Avena fatua; conditions: dosage 320 g/ha, scored visually after 3 weeks vs untreated controls
Outline: as §3

POLCO = assay: Pre-emergence action against POLCO; type: in vivo, Polygonum convolvulus; conditions: Dosage 320 g/ha, pre-emergence
Outline: as §3

VERPE [15] = assay: Pre-emergence action against VERPE; type: in vivo, Veronica persica; conditions: Dosage 320 g/ha, pre-emergence
Outline: as §3

ECHCG [16] = assay: Post-emergence action against ECHCG; type: in vivo, Echinochloa crus-galli; conditions: post-emergence, dosage 80 g/ha, visual assessment about 3 weeks after treatment vs untreated controls
Outline: as §1

ECHCG [17] = assay: Pre-emergence action against ECHCG; type: in vivo, Echinochloa crus-galli; conditions: pre-emergence, dosage 320 g/ha, scored visually after 3 weeks vs untreated controls
Outline: as §3

STEME [18] = assay: Post-emergence action against STEME; type: in vivo, Stellaria media; conditions: post-emergence, dosage 80 g/ha
Outline: as §1

ABUTH [19] = assay: Pre-emergence action against ABUTH; type: in vivo, Abutilon theophrasti; conditions: pre-emergence, dosage 320 g/ha, scored visually after 3 weeks vs untreated controls
Outline: as §3

VIOTR [20] = assay: Post-emergence action against VIOTR; type: in vivo, Viola tricolor; conditions: post-emergence, dosage 80 g/ha
Outline: as §1

AMARE [21] = assay: Pre-emergence action against AMARE; type: in vivo, Amaranthus retroflexus; conditions: pre-emergence, dosage 320 g/ha, scored visually after 3 weeks vs untreated controls
Outline: as §3

PHBPU [22] = assay: Post-emergence action against PHBPU; type: in vivo, Pharbitis purpurea; conditions: post-emergence, dosage 80 g/ha
Outline: as §1

ALOMY [23] = assay: Post-emergence action against ALOMY; type: in vivo, Alopecurus myosuroides; conditions: Dosage 80 g/ha, post-emergence
Procedure: as §2

STEME [24] = assay: Pre-emergence action against STEME; type: in vivo, Stellaria media; conditions: Dosage 320 g/ha, pre-emergence
Outline: as §3

CCn1nnnc1NC(=O)c1ccc(SC)c(C(C)=O)c1Cl [2-121]
100: Post-emergence action against VERPE (VERPE [13]) | Post-emergence action against VIOTR (VIOTR [20])
80%: Post-emergence action against AVEFA (herbicidal action in percent) (AVEFA [2]) | Pre-emergence action against PHBPU (PHBPU [3]) | Post-emergence action against CYPES (herbicidal action in percent) (CYPES [8]) | Post-emergence action against ALOMY (ALOMY [23])
90: Post-emergence action against STEME (STEME [18]) | Post-emergence action against PHBPU (PHBPU [22])
90%: Post-emergence action against SETVI (herbicidal action in percent) (SETVI [1]) | SETVI (Table B8, pre-emergence herbicidal activity) (SETVI [6]) | Pre-emergence action against CYPES (herbicidal activity) (CYPES [11]) | Pre-emergence action against ALOMY (herbicidal activity in percent) (ALOMY [12]) | Pre-emergence action against AVEFA (herbicidal activity) (AVEFA [14]) | Pre-emergence action against STEME (STEME [24])
100%: Post-emergence action against MATIN (herbicidal action in percent) (MATIN [4]) | Pre-emergence action against MATIN (MATIN [5]) | Pre-emergence action against VIOTR (VIOTR [7]) | Post-emergence action against ABUTH (herbicidal action in percent) (ABUTH [9]) | Post-emergence action against AMARE (herbicidal action in percent) (AMARE [10]) | Pre-emergence action against POLCO (POLCO) | Pre-emergence action against VERPE (VERPE [15]) | Post-emergence action against ECHCG (herbicidal action in percent) (ECHCG [16]) | Pre-emergence action against ECHCG (herbicidal activity) (ECHCG [17]) | Pre-emergence action against ABUTH (herbicidal activity) (ABUTH [19]) | Pre-emergence action against AMARE (herbicidal activity) (AMARE [21])
